Assay results: patent US20160319277A1, “METHODS OF IMPROVED PROTEIN PRODUCTION USING MIRNAs AND SIRNAs” (THE JOHNS HOPKINS UNIVERSITY, priority 2015, published 2016)

Tested on: HEK-CMV-Luc2-Hygro cells
Experiment: High-throughput genome-wide siRNA screen and validation screen for luciferase expression
Type: cell-based, human
Details: for Viable cell density (%) / per cell luciferase yield (%): Table 4, negative control = 100%; for Viable cell density (%) / per cell luciferase yield (%) / per_cell / VIA: primary screen, 72 h; for per_cell / VIA: Table 3; for per_cell: per cell luciferase yield relative to negative control; for VIA: viable cell density as % of negative control; for Luciferase activity (%) / Per cell luciferase yield (%) / Viable cell number (%): Table 6, polyamine pathway gene siRNAs
Experimental: The Silencer Select™ Human genome siRNA library (Ambion), which targets 21,585 human genes with 3 siRNAs per gene, was used for screening. Each siRNA is arrayed in an individual well (Corning 3570, 384 well, white, solid bottom plates). The transfection was done in duplicates: 0.8 pmol of each siRNA was spotted to a well of a 384-well plate (Corning) and 20 μL of serum-free DMEM containing 0.07 μL of Lipofectamine™ RNAiMax (Life Technologies) was then added to each well. This lipid-siRNA mixture was incubated at ambient temperature for 30 min prior to addition of 4000 cells in 20 μL of DMEM containing 20% FBS (Gibco). After incubating the transfected cells at 37° C. in 5% CO2 for 72 hours, 20 μL of ONE-Glo™ Reagent (Promega) was added to one set of replicates for ‘overall luciferase yield’ quantification and 20 μL of CellTiter-Glo™ Reagent (Promega) was added to the second set of replicates for ‘viable cell density’ measurement. All plates were incubated at room temperature for 20 minutes to stabilize the luminescent signal and the signal was then measured with PerkinElmer Envision 2104 Multilabel™ plate reader.
The 56 genes which got targeted by at least two independent siRNAs (out of three) resulting in enhanced luciferase production with MAD-based z-score>3 from the primary screen were subjected to validation screen using 3 additional Silencer™ siRNAs (Ambion) with different sequences from those used in the primary screen. […] The transfection and assay processes were-the same as the primary genome-wide screen. Data visualization was performed in R computational environment (available on the World Wide Web at R-project.org/) by using ‘hexbin’ and ‘ggplot2’ packages.
The screen generated end-point data for ‘overall luciferase yield’ and ‘viable cell density’ in each well. For each plate, the median value of the negative control wells was set as 100% and was used to normalize corresponding sample wells. The ‘overall luciferase yield’ and ‘viable cell density’ were exported as % of negative control and the median absolute deviation (MAD)-based z-score was calculated for each sample.

Substance | Viable cell density (%) | per cell luciferase yield (%) | also measured
106 (GCUCAUCGACAUCAAAGUUTT; chemistry not given here; listed as Homo sapiens) [compound 106] | 97.007 | 170.088 | –
136 (AGGUUACAGAGGACUCAGATT; chemistry not given here; listed as Homo sapiens) [compound 136] | 49.189 | 299.886 | –
161 (GCAGUGGACAUAGAAGAGATT; chemistry not given here; listed as Homo sapiens) [compound 161] | 110.815 | 140.658 | –
205 (CUCUGAUUGUCACCUCUUATT; chemistry not given here; listed as Homo sapiens) [compound 205] | 61.943 | 281.113 | –
116 (UGGUCUCAAUGACAGUAGATT; chemistry not given here; listed as Homo sapiens) [compound 116] | 53.645 | 370.824 | –
91 (CAGCAAACCUUUGACCAGATT; chemistry not given here; listed as Homo sapiens) [compound 91] | – | – | per_cell: 277.5; VIA: 55.4
158 (CUUCGACAGUACUUCCGGATT; chemistry not given here; listed as Homo sapiens) [compound 158] | 104.020 | 161.613 | –
94 (AGAGGCUACUUUGAAAACATT; chemistry not given here; listed as Homo sapiens) [compound 94] | 66.938 | 227.583 | –
72 (GCUCCUCUGUUACCACAGATT; chemistry not given here; listed as Homo sapiens) [compound 72] | – | – | per_cell: 179.3; VIA: 91.53
150 (CGCUUUAACUGGAAGCUCUTT; chemistry not given here; listed as Homo sapiens) [compound 150] | 103.662 | 146.993 | –
223 (GAUGACUUUUGAUAGUGAATT; chemistry not given here; listed as Homo sapiens) [compound 223] | – | – | Luciferase activity (%): 18.0%; Per cell luciferase yield (%): 32.1%; Viable cell number (%): 56.1%
51 (CCAGCGAUACAACUCCUAUTT; chemistry not given here; listed as Homo sapiens) [compound 51] | – | – | per_cell: 176.8; VIA: 83.64
216 (GGGAAUAGUCAGAGGGAUCTT; chemistry not given here; listed as Homo sapiens) [compound 216] | – | – | Luciferase activity (%): 92.8%; Per cell luciferase yield (%): 90.4%; Viable cell number (%): 102.7%
196 (ACAGGUCUUUAUCAAAGCATT; chemistry not given here; listed as Homo sapiens) [compound 196] | 100.201 | 153.426 | –
144 (GGAUCACGCAGCUCAAGAUTT; chemistry not given here; listed as Homo sapiens) [compound 144] | 91.538 | 161.634 | –
207 (CGCUCACCAACAGCAGAAATT; chemistry not given here; listed as Homo sapiens) [compound 207] | 102.629 | 146.756 | –
44 (CAACAGAUCAGAGAACAAATT; chemistry not given here; listed as Homo sapiens) [compound 44] | – | – | per_cell: 156.4; VIA: 92.43

Substance | Viable cell density (%) | per cell luciferase yield (%) | also measured
166 (CCAAGUCCAAUGCACCUGUTT; chemistry not given here; listed as Homo sapiens) [compound 166] | 76.798 | 186.195 | –
157 (GAACAGCUGGGAACCUUCATT; chemistry not given here; listed as Homo sapiens) [compound 157] | 60.645 | 254.007 | –
154 (CAACAGUACUUACCGAUGUTT; chemistry not given here; listed as Homo sapiens) [compound 154] | 115.513 | 141.760 | –
110 (CAAUGAUUCUUACCCUCAATT; chemistry not given here; listed as Homo sapiens) [compound 110] | 77.169 | 257.929 | –
101 (GUUCAUCCAUAAGUACAUUTT; chemistry not given here; listed as Homo sapiens) [compound 101] | 83.129 | 238.606 | –
115 (AGAUACUGGUAUUGCUCGATT; chemistry not given here; listed as Homo sapiens) [compound 115] | 54.559 | 388.072 | –
125 (GGAACACUAUGAUGAGUUUTT; chemistry not given here; listed as Homo sapiens) [compound 125] | 63.672 | 240.287 | –
73 (GUCCGAGUGUGGUUCUGUATT; chemistry not given here; listed as Homo sapiens) [compound 73] | – | – | per_cell: 180.4; VIA: 85.82
220 (CCGGGAAAGUUUGACUGCATT; chemistry not given here; listed as Homo sapiens) [compound 220] | – | – | Luciferase activity (%): 101.5%; Per cell luciferase yield (%): 133.9%; Viable cell number (%): 75.8%
124 (GAAUAACCGUUGGUUUAAUTT; chemistry not given here; listed as Homo sapiens) [compound 124] | 65.083 | 292.710 | –
199 (CUAACUACCCAGACCCUUATT; chemistry not given here; listed as Homo sapiens) [compound 199] | 88.359 | 164.639 | –
140 (GUCCGAGUGUGGUUCUGUATT; chemistry not given here; listed as Homo sapiens) [compound 140] | 85.820 | 180.401 | –
153 (CACUUUCCUGGGUAUUGUATT; chemistry not given here; listed as Homo sapiens) [compound 153] | 87.831 | 171.072 | –
58 (ACAGGUCUUUAUCAAAGCATT; chemistry not given here; listed as Homo sapiens) [compound 58] | – | – | per_cell: 3.426; VIA: 100.2
203 (GAUUACUUCUUGACUAUCATT; chemistry not given here; listed as Homo sapiens) [compound 203] | 123.199 | 150.843 | –
42 (CAAGUCACCUGUUACCUCATT; chemistry not given here; listed as Homo sapiens) [compound 42] | – | – | per_cell: 171.8; VIA: 88.96
215 (GCUAACUUAUUCUACUCCGTT; chemistry not given here; listed as Homo sapiens) [compound 215] | – | – | Luciferase activity (%): 171.1%; Per cell luciferase yield (%): 154.7%; Viable cell number (%): 110.6%
